Test results taken from article PMC4418665, “Cyclization of the Urokinase Receptor-Derived Ser-Arg-Ser-Arg-Tyr Peptide Generates a Potent Inhibitor of Trans-Endothelial Migration of Monocytes” (PLoS ONE, 2015).
Peptide text beside a SMILES is read from it.

Tests used:
[1] = biological target: T1, FPR1 (Homo sapiens, UniProt P21462); assay: Ligand binding assay, competition with FITC-fMLF at 4°C, RBL-2H3/ETFR cells; parameters: expressed in transfected cells; conditions: 100 nM peptide pre-incubated 60 min at 4°C, then 10 nM FITC-fMLF 60 min at 4°C; cell-associated fluorescence; triplicates
T1 sequence (P21462 1-350): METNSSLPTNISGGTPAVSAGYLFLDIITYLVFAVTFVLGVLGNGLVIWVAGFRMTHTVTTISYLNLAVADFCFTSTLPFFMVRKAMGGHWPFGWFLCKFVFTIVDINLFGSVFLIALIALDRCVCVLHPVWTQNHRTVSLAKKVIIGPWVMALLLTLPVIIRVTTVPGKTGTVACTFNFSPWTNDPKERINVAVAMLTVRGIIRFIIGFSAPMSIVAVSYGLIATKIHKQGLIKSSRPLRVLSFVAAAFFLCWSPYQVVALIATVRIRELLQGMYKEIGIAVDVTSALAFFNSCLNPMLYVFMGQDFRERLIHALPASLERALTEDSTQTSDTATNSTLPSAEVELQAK
Procedure: (§1) We have previously documented that SRSRY competes with the bacterial-derived N-formyl-methionyl-leucyl-phenylalanine peptide (fMLF) for binding to FPR type 1 (FPR1) and that both SRSRY and fMLF promote cell migration by triggering FPR1 internalization. […] Quantification of cell-associated fluorescence was assessed by reading cell lysates with a fluorescence plate reader. RBL-2H3 cells lack FPR1, thus they display very low uptake that was not saturable with unlabeled fMLF (Fig 2A). […] To evaluate the effect of [SRSRY] on agonist-dependent FPR1 internalization, binding experiments were performed at 37°C. […] Thus, we assessed whether [SRSRY] elicits effects on fMLF-directed cell migration. RBL-2H3/ETFR cell migration toward 10 nM fMLF was monitored in real-time for 4 hours as Cell Index changes due to the adhesion of migrating cells to microelectrodes using the xCELLigence RTCA technology as previously described. […]
(§2) Fig 2 Both linear and cyclic SRSRY peptides bind to FPR1. […] Fluorimetric measurement of cell-associated fluorescence was assed using 485 nm excitation and 535 nm emission filters. Data are expressed as a percentage of the fluorescence associated to RBL-2H3 cells exposed to FITC-fMLF alone (CTL = 100%) and represent a mean ± SD from triplicates. *Statistical significance (t-test) against None with p<0.001. […] Cell migration of RBL-2H3/ETFR cells monitored by the xCELLigence system. […]

[2] = biological target: T1, FPR1; assay: Agonist-dependent FPR1 internalization at 37°C, fluorescence microscopy, RBL-2H3/ETFR cells; type: cell-based; parameters: expressed in transfected cells; conditions: 100 nM peptide 30 min at 37°C, then 10 nM FITC-fMLF 30 min at 37°C
Procedure: as §1, §2

| Structure (SMILES) | binding of FITC-fMLF to RBL-2H3/ETFR cells [1] | agonist-dependent FPR1 internalization in RBL-2H3/ETFR cells [2] |
| --- | --- | --- |
| N=C(N)NCCC[C@H](NC(=O)[C@H](CO)NC(=O)[C@H](CCCNC(=N)N)NC(=O)[C@@H](N)CO)C(=O)N[C@@H](Cc1ccc(O)cc1)C(N)=O [SRSRY, H-Ser-Arg-Ser-Arg-Tyr-NH2] (H-SRSRY-NH2) | reduced to the basal level | prevented |
| N=C(N)NCCC[C@@H]1NC(=O)[C@H](CO)NC(=O)[C@H](Cc2ccc(O)cc2)NC(=O)[C@H](CCCNC(=N)N)NC(=O)[C@H](CO)NC1=O [[SRSRY], [Ser-Arg-Ser-Arg-Tyr]] (cyclo(RSRYS)) | inhibits binding of fluorescent agonist to RBL-2H3/ETFR cells to a similar extent as compared to fMLF or SRSRY | prevented agonist-dependent FPR1 internalization |
